From US9604933B2, “Pyrazolochalcones as potential anticancer agents” (COUNCIL OF SCIENTIFIC AND INDUSTRIAL RESEARCH, priority 2013, dated 2017)
Read-outs that look alike come from different tables or passages of the source.

Assays:
[1] = tested on: K-562; assay: NCI SRB cytotoxicity, leukemia K-562; type: cell-based; conditions: Homo sapiens, K562, 48 h exposure
Method: (§1) The pyrazolochalcones (7e, 8e, 10e, 11e, 12e, 13e and 8f) have been tested against fifty nine human tumor cell lines derived from nine cancer types (leukemia, non-small cell lung cancer, colon cancer, CNS cancer, melanoma, ovarian cancer, renal cancer, prostate cancer and breast cancer) as per the NCI protocol. For each compound, dose response curves for individual cell lines have been measured at a minimum of five concentrations at 10 fold dilutions. A protocol of 48 h continuous drug exposure has been used, and a sulforhodamine B (SRB) protein assay has been used to estimate cell viability or growth. The concentration for 50% cell growth inhibition (GI50), 50% cell death (LC50, 50% growth) and total cell growth inhibition (TGI, 0% growth) values were tabulated (Table-1). DMSO was used as control to calculate the values of GI50, LC50 and TGI. The compounds 7e, 8e, 10e, 11e, 12e, 13e and 8f has been evaluated for their in vitro cytotoxicity in […] cell lines from nine human cancer types of leukemia (K-562, SR), non-small cell lung (Hop-62, NCI-H226, NCI-H522), colon (HCT-116, HCT-15, HCC-2998), CNS (SF-539), melanoma (SK-MEL-5, UACC-62, M14), ovarian (IGROV1), renal (A498), prostate (PC3) and breast (BT-549, MDA-MB-435, HS578T) origin. The results are expressed as percent of cell growth determined relative to that of untreated control cells (Table 2).

[2] = tested on: MOLT-4; assay: NCI SRB cytotoxicity, leukemia MOLT-4; type: cell-based; conditions: Homo sapiens, 48 h exposure
Method: as §1

[3] = tested on: SR; assay: NCI SRB cytotoxicity, leukemia SR; type: cell-based; conditions: Homo sapiens, 48 h exposure
Method: as §1

[4] = tested on: NCI-H226; assay: NCI SRB cytotoxicity, non-small cell lung NCI-H226; type: cell-based; conditions: Homo sapiens, 48 h exposure
Method: as §1

[5] = tested on: NCI-H23; assay: NCI SRB cytotoxicity, non-small cell lung NCI-H23; type: cell-based; conditions: Homo sapiens, 48 h exposure
Method: as §1

[6] = tested on: NCIH322M; assay: NCI SRB cytotoxicity, non-small cell lung NCIH322M; type: cell-based; conditions: Homo sapiens, NCI-H322M, 48 h exposure
Method: as §1

[7] = tested on: NCI-H522; assay: NCI SRB cytotoxicity, non-small cell lung NCI-H522; type: cell-based; conditions: Homo sapiens, 48 h exposure
Method: as §1

[8] = tested on: COLO-205; assay: NCI SRB cytotoxicity, colon COLO-205; type: cell-based; conditions: Homo sapiens, 48 h exposure
Method: as §1

[9] = tested on: HCC-2998; assay: NCI SRB cytotoxicity, colon HCC-2998; type: cell-based; conditions: Homo sapiens, 48 h exposure
Method: as §1

[10] = tested on: HT29; assay: NCI SRB cytotoxicity, colon HT29; type: cell-based; conditions: Homo sapiens, HT-29, 48 h exposure
Method: as §1

[11] = tested on: KM12; assay: NCI SRB cytotoxicity, colon KM12; type: cell-based; conditions: Homo sapiens, 48 h exposure
Method: as §1

[12] = tested on: SW-620; assay: NCI SRB cytotoxicity, colon SW-620; type: cell-based; conditions: Homo sapiens, 48 h exposure
Method: as §1

[13] = tested on: SNB-19; assay: NCI SRB cytotoxicity, CNS SNB-19; type: cell-based; conditions: Homo sapiens, 48 h exposure
Method: as §1

[14] = tested on: LOX IMVI; assay: NCI SRB cytotoxicity, melanoma LOX IMVI; type: cell-based; conditions: Homo sapiens, 48 h exposure
Method: as §1

[15] = tested on: M14; assay: NCI SRB cytotoxicity, melanoma M14; type: cell-based; conditions: Homo sapiens, 48 h exposure
Method: as §1

[16] = tested on: SK-MEL-2; assay: NCI SRB cytotoxicity, melanoma SK-MEL-2; type: cell-based; conditions: Homo sapiens, 48 h exposure
Method: as §1

[17] = tested on: SK-MEL-28; assay: NCI SRB cytotoxicity, melanoma SK-MEL-28; type: cell-based; conditions: Homo sapiens, 48 h exposure
Method: as §1

[18] = tested on: UACC-62; assay: NCI SRB cytotoxicity, melanoma UACC-62; type: cell-based; conditions: Homo sapiens, 48 h exposure
Method: as §1

[19] = tested on: IGROV1; assay: NCI SRB cytotoxicity, ovarian IGROV1; type: cell-based; conditions: Homo sapiens, IGROV-1, 48 h exposure
Method: as §1

[20] = tested on: OVCAR-5; assay: NCI SRB cytotoxicity, ovarian OVCAR-5; type: cell-based; conditions: Homo sapiens, 48 h exposure
Method: as §1

[21] = tested on: NCI/ADR-RES; assay: NCI SRB cytotoxicity, ovarian NCI/ADR-RES; type: cell-based; conditions: Homo sapiens, 48 h exposure
Method: as §1

[22] = tested on: SK-OV-3; assay: NCI SRB cytotoxicity, ovarian SK-OV-3; type: cell-based; conditions: Homo sapiens, 48 h exposure
Method: as §1

[23] = tested on: 786-0; assay: NCI SRB cytotoxicity, renal 786-0; type: cell-based; conditions: Homo sapiens, 48 h exposure
Method: as §1

[24] = tested on: A498; assay: NCI SRB cytotoxicity, renal A498; type: cell-based; conditions: Homo sapiens, 48 h exposure
Method: as §1

[25] = tested on: CAKI-1; assay: NCI SRB cytotoxicity, renal CAKI-1; type: cell-based; conditions: Homo sapiens, 48 h exposure
Method: as §1

[26] = tested on: PC-3; assay: NCI SRB cytotoxicity, prostate PC-3; type: cell-based; conditions: Homo sapiens, 48 h exposure
Method: as §1

[27] = tested on: MCF7; assay: NCI SRB cytotoxicity, breast MCF7; type: cell-based; conditions: Homo sapiens, 48 h exposure
Method: as §1

[28] = tested on: MDA-MB-231/ATCC; assay: NCI SRB cytotoxicity, breast MDA-MB-231/ATCC; type: cell-based; conditions: Homo sapiens, 48 h exposure
Method: as §1

[29] = tested on: HS 578T; assay: NCI SRB cytotoxicity, breast HS 578T; type: cell-based; conditions: Homo sapiens, 48 h exposure
Method: as §1

[30] = tested on: Leukemia; assay: NCI SRB cytotoxicity, leukemia panel average; type: cell-based, human; conditions: average of cell lines; for CC50: read-out: Log10 LC50 (concentration in mol/L causing 50% cell death) (converted)
Method: as §1
(§2) Each cancer type represents the average of six to eight different cancer cell lines.

[31] = tested on: Non-small cell lung; assay: NCI SRB cytotoxicity, non-small cell lung panel average; type: cell-based, human; conditions: average of cell lines; for LC50: read-out: Log10 LC50 (concentration in mol/L causing 50% cell death) (converted)
Method: as §1, §2

[32] = tested on: Colon; assay: NCI SRB cytotoxicity, colon panel average; type: cell-based, human; conditions: average of cell lines; for LC50: read-out: Log10 LC50 (concentration in mol/L causing 50% cell death) (converted)
Method: as §1, §2

[33] = tested on: CNS; assay: NCI SRB cytotoxicity, CNS panel average; type: cell-based, human; conditions: average of cell lines; for LC50: read-out: Log10 LC50 (concentration in mol/L causing 50% cell death) (converted)
Method: as §1, §2

[34] = tested on: Ovarian; assay: NCI SRB cytotoxicity, ovarian panel average; type: cell-based, human; conditions: average of cell lines; for CC50: read-out: Log10 LC50 (concentration in mol/L causing 50% cell death) (converted)
Method: as §1, §2

[35] = tested on: human tumor cell lines; assay: NCI SRB cytotoxicity, all fifty nine human tumor cell lines; type: cell-based; design: Log10 TGI mean graph midpoint (MG_MID): unit not given here; conditions: for GI50: Homo sapiens; for cytotoxicity: against cancer cell lines, in words; for LC50: read-out: Log10 LC50 mean graph midpoint (MG_MID) (converted)
Method: as §1
The mean graph midpoint values of Log10 TGI and Log10 LC50 as well as Log10 GI50 for compounds 7e, 8e, 10e, 11e, 12e, 13e and 8f is listed in Table-3. […] The mean graph mid points of Log10 TGI and Log10, LC50 have shown similar pattern to the log10 GI50 mean graph mid points.

[36] = across fifty nine cell lines in nine cell panels, read-out: GI50 value range
[37] = against human tumor cell lines, read-out: Log10 GI50 mean graph midpoint (MG_MID) (converted)
[38] = Homo sapiens, read-out: Log10 GI50 (concentration in mol/L causing 50% growth inhibition) (converted)

## COc1cc(-c2cc(/C=C/C(=O)c3ccc4c(c3)OCO4)[nH]n2)cc(OC)c1OC [11e, (E)-1-(benzo[d][1,3]dioxol-5-yl)-3-(3-(3,4,5-trimethoxyphenyl)-1H-pyrazol-5-yl)prop-2-en-1-one]
[1]
  GI50: 3.2 µM
[2]
  GI50: 2.98 µM
[3]
  GI50: 0.55 µM
[4]
  GI50: 3.31 µM
[5]
  GI50: 2.02 µM
[6]
  GI50: 3.01 µM
[7]
  GI50: 1.03 µM
[8]
  GI50: 1.87 µM
[9]
  GI50: 1.95 µM
[10]
  GI50: 2.18 µM
[11]
  GI50: 1.76 µM
[12]
  GI50: 2.47 µM
[13]
  GI50: 4.3 µM
[14]
  GI50: 1.82 µM
[15]
  GI50: 3.86 µM
[16]
  GI50: 10.3 µM
[17]
  GI50: 2.48 µM
[18]
  GI50: 4.67 µM
[19]
  GI50: 5 µM
[20]
  GI50: 3.37 µM
[21]
  GI50: 4.23 µM
[22]
  GI50: 5.76 µM
[23]
  GI50: 2.33 µM
[24]
  GI50: 2.76 µM
[25]
  GI50: 5.51 µM
[26]
  GI50: 2.81 µM
[27]
  GI50: 1.67 µM
[28]
  GI50: 3.5 µM
[29]
  GI50: 3.71 µM
[30]; Homo sapiens
  CC50: 0.0001 mol/L
[30]
  Log10 GI50 (concentration in mol/L causing 50% growth inhibition): −4.91 mol/L
  Log10 TGI (concentration in mol/L causing total growth inhibition (0% growth)): −5.00 mol/L
[31]; Homo sapiens
  LC50: 53.7 µM
[31]
  Log10 GI50 (concentration in mol/L causing 50% growth inhibition): −4.27 mol/L
  Log10 TGI (concentration in mol/L causing total growth inhibition (0% growth)): −4.70 mol/L
[32]; Homo sapiens
  LC50: 21.9 µM
[32]
  Log10 GI50 (concentration in mol/L causing 50% growth inhibition): −4.66 mol/L
  Log10 TGI (concentration in mol/L causing total growth inhibition): −5.33 mol/L
[33]; Homo sapiens
  LC50: 63.1 µM
[33]
  Log10 GI50 (concentration in mol/L causing 50% growth inhibition): −4.2 mol/L
  Log10 TGI (concentration in mol/L causing total growth inhibition (0% growth)): −4.83 mol/L
[34]; Homo sapiens
  CC50: 100 µM
[34]
  Log10 GI50 (concentration in mol/L causing 50% growth inhibition): −4 mol/L
  Log10 TGI (concentration in mol/L causing total growth inhibition (0% growth)): −4.38 mol/L
[35]; [36]
  GI50: 0.18 to 29.2 µM
[35]; [37]
  GI50: 2.69 µM
[35]
  cytotoxicity: significant cytotoxicity
[35]; against human tumor cell lines
  Log10 TGI mean graph midpoint (MG_MID): −4.77
  LC50: 61.7 µM

## COc1cc(-c2cc(/C=C/C(=O)c3ccc(Cl)c(Cl)c3)[nH]n2)cc(OC)c1OC [12e, (E)-1-(3,4-dichlorophenyl)-3-(3-(3,4,5-trimethoxyphenyl)-1H-pyrazol-5-yl)prop-2-en-1-one]
[1]
  GI50: 4.96 µM
[2]
  GI50: 4.38 µM
[3]
  GI50: 0.39 µM
[4]
  GI50: 18.6 µM
[5]
  GI50: 23.4 µM
[6]
  GI50: 14.5 µM
[7]
  GI50: 1.33 µM
[8]
  GI50: 1.26 µM
[9]
  GI50: 9.56 µM
[10]
  GI50: 1.15 µM
[11]
  GI50: 3.37 µM
[12]
  GI50: 8.63 µM
[13]
  GI50: 9.83 µM
[14]
  GI50: 3.39 µM
[15]
  GI50: 18.2 µM
[16]
  GI50: 13.9 µM
[17]
  GI50: 18.5 µM
[18]
  GI50: 18.8 µM
[19]
  GI50: 24 µM
[20]
  GI50: 20.5 µM
[21]
  GI50: 10.6 µM
[22]
  GI50: 4.19 µM
[23]
  GI50: 10.1 µM
[24]
  GI50: 5.89 µM
[25]
  GI50: 16.9 µM
[26]
  GI50: 5.95 µM
[27]
  GI50: 1.8 µM
[28]
  GI50: 8.65 µM
[29]
  GI50: 16.6 µM
[30]; [38]
  GI50: 2.09 µM
[30]; Homo sapiens
  CC50: 0.0001 mol/L
[30]
  Log10 TGI (concentration in mol/L causing total growth inhibition (0% growth)): −4.61 mol/L
[31]; [38]
  GI50: 6.61 µM
[31]; Homo sapiens
  LC50: 200 µM
[31]
  Log10 TGI (concentration in mol/L causing total growth inhibition (0% growth)): −4.52 mol/L
[32]; [38]
  GI50: 4.79 µM
[32]; Homo sapiens
  LC50: 100 µM
[32]
  Log10 TGI (concentration in mol/L causing total growth inhibition): −4.34 mol/L
[33]; [38]
  GI50: 8.51 µM
[33]; Homo sapiens
  LC50: 87.1 µM
[33]
  Log10 TGI (concentration in mol/L causing total growth inhibition (0% growth)): −4.25 mol/L
[34]; [38]
  GI50: 10 µM
[34]; Homo sapiens
  CC50: 95.5 µM
[34]
  Log10 TGI (concentration in mol/L causing total growth inhibition (0% growth)): −4.27 mol/L
[35]; [36]
  GI50: 0.18 to 29.2 µM
[35]; [37]
  GI50: 6.61 µM
[35]
  cytotoxicity: significant cytotoxicity
[35]; against human tumor cell lines
  Log10 TGI mean graph midpoint (MG_MID): −4.35
  LC50: 89.1 µM
